Reference: patent US8906955B2, “Use of adrenergic beta-3-receptor agonists in anti-aging” (priority 2012, dated 2014)

What was measured:
[1] = tested on: rat myocardial infarction models; experiment: Rat myocardial infarction (heart failure) model: B-ultrasonography, tunel apoptosis, LVW/BW; format: in vivo; settings: 1 mg/kg/day intraperitoneally, 4 weeks
Method: (§1) In rat myocardial infarction models, activation of the β-3 receptor could increase level of SIRT1 in cardiomyocyte, inhibit expression of p53, improve the cardiac function and achieve anti-apoptosis effect. The myocardial infarction model was created by ligation of anterior descending branch of rat left coronary artery. BRL37344 was intraperitoneally injected at 1 mg/kg/day, and heart B-ultrasonography was performed after 4 weeks. Heart tissue was determined for apoptosis (tunel method) and expression levels of SIRT1 and p53 (western blot). The ratio of left ventricular weight to body weight (LVW/BW) is determined. It can be seen from the results shown in FIGS. 3 to 5, that BRL37344 decreases p53 expression, cardiac cell apoptosis, and value of LVW/BW of heart failure rat, increases SIRT1 expression, alleviate cardiac hypertrophy and improve cardiac function.

[2] = tested on: p53; experiment: Western blot of p53 in heart tissue of myocardial infarction rats; format: in vivo; settings: heart failure rat, 1 mg/kg/day intraperitoneally, 4 weeks
Method: as §1

[3] = tested on: SIRT1; experiment: Western blot of SIRT1 in heart tissue of myocardial infarction rats; format: in vivo; settings: heart failure rat, 1 mg/kg/day intraperitoneally, 4 weeks
Method: as §1

[4] = tested on: adipose-derived stem cells of rats; experiment: β-Galactosidase staining of adipose-derived stem cells; format: cell-based, rat; settings: 10^−7 M, 24 h, compared with SR59230A
Method: Blockage of the β-3 receptor could increase level of β-galactosidase in adipose-derived stem cells and promote stem cell aging. BRL37344 and SR59230A were used to treat adipose-derived stem cells of rats each at 10^−7 M. After 24 h, cells were fixed using paraformaldehyde, and stained and photographed according to the specification of β-Galactosidase Staining Kit. BRL37344 decreases the level of β-galactosidase in adipose-derived stem cells compared with SR59230A, indicating agonisting of adrenergic β3 receptors of adipose-derived stem cells achieves anti-aging effect.

[5] = tested on: mTOR/Rictor complex; experiment: Western blot of mTOR/Rictor complex; format: cell-based; settings: rat cardiomyocyte, 10^−7 M, 24 h, compared to control shRNA
Method: Activation of the β3 receptor could increase mTOR/Rictor complex in […]. shRNA of β3 adrenergic receptor, control shRNA, BRL37344 and SR59230A was used to treat rat cardiomyocyte each at 10^−7 M. After 24 h, total protein was extracted and subjected to western blot to determine the expression amount of mTOR and Rictor proteins.

[6] = tested on: SIRT1; experiment: Quantitative PCR of SIRT1 in organs of aging rats; format: in vivo; settings: 12-month male SD rats, 100 nmol per rat intraperitoneally, qd, 2 weeks, vs control group
Text: (§2) Activation of the β3 receptor could increase the expression of SIRT1, SIRT3 and SIRT4 in heart, liver, brain, kidney and aorta of aging rats. Twenty 12-month male SD rats were randomly divided into 2 groups. The rats were intraperitoneally injected with BRL37344 at 100 nmol for each rat, qd, 2 weeks. The rats in control group were administrated with solvents of same volume. The rats were sacrificed to obtain heart, liver, brain, kidney and aorta, followed by total RNA extraction. The RNA was then reversely transcribed, followed by quantitative PCR to detect gene expression of SIRT1, SIRT3 and SIRT4. Compared to the control group, BRL37344 increases the expression of SIRT1, SIRT3 and SIRT4 in heart, liver, brain, kidney and aorta.

[7] = tested on: SIRT3; experiment: Quantitative PCR of SIRT3 in organs of aging rats; format: in vivo; settings: 12-month male SD rats, 100 nmol per rat intraperitoneally, qd, 2 weeks, vs control group
Text: as §2

[8] = tested on: SIRT4; experiment: Quantitative PCR of SIRT4 in organs of aging rats; format: in vivo; settings: 12-month male SD rats, 100 nmol per rat intraperitoneally, qd, 2 weeks, vs control group
Text: as §2

[9] = tested on: MCF7 cells; experiment: JC-1 flow cytometry of mitochondrial membrane potential; format: cell-based; settings: 10^−7 M
Method: (§3) Activation of the β3 receptor could increase mitochondrial content of MCF7 cells. BRL37344 and SR59230A were used to treat MCF7 cells and naked tumor-bearing rats each at 10^−7 M. The amount of mitochondrion was determined by MitoTracker probes. Mitochondrial membrane potential was determinded by JC1. The ROS content of the cells was determined by fluorescence probe H2DCFDA. ATP level was determined by ATP kit. MDC staining was determined by flowcytometer. GFP-LC3 eukaryotic expression vectors were used for transfection. […] BRL37344 protected mitochondrial membrane potential (FIG. 10), reduced intracellular ROS content (FIG. 11), and increased intracellular ATP level (FIG. 12).

[10] = tested on: MCF7 cells; experiment: H2DCFDA flow cytometry of reactive oxygen species; format: cell-based; settings: 10^−7 M, fluorescence probe H2DCFDA
Method: as §3

[11] = tested on: naked tumor-bearing rats; experiment: ATP content by ATP kit in tumor tissue of naked tumor-bearing rats; format: in vivo, rat; settings: 10^−7 M
Method: as §3

[12] = tested on: cardiomyocyte; experiment: Lipofuscin in cardiomyocyte under confocal microscope; format: cell-based, rat; settings: 10^−7 M, 10 days
Text: Beta-3 receptor reduced amount of lipofuscin in cardiomyocyte. BRL37344 and SR59230A were used to treat cardiomyocyte each at 10^−7 M. After 10 days, cells were observed under confocal microscope for lipofuscin.

[13] = tested on: mTOR/α-Tubulin; experiment: mTOR/α-Tubulin double staining in cardiac fibroblast; format: cell-based, rat; settings: cardiac fibroblast of rats, 10^−7 M, confocal microscope
Text: (§4) Beta-3 receptor promoted binding of mTORC2 to α-Tubulin in spindle apparatus. BRL37344 was used to treat cardiac fibroblast of rats at 10^−7 M. The cells were undergone mTOR/α-Tubulin immunohistochemical double staining and Rictor/α-Tubulin immunofluorescence double staining, and observed under confocal microscope.

[14] = tested on: Rictor/α-Tubulin; experiment: Rictor/α-Tubulin immunofluorescence double staining in cardiac fibroblast; format: cell-based, rat; settings: cardiac fibroblast of rats, 10^−7 M, confocal microscope
Text: as §4

[15] = tested on: p53; experiment: Western blot of p53 in MCF-7 cells treated with SR59230A; format: cell-based; settings: 24 h, with increasing SR59230A concentration, western blot vs GAPDH
Method: (§5) MCF-7 cells were treated with SR59230A at different concentrations. After 24 h, the cells were lysed to extract total protein. The protein concentration was determined by BCA method. 10 μg of the protein was used to perform 10% SDS PAGE, and then transferred to a PVDF membrane. The membrane was blocked for 1 h with TBST (10 mmol/L Tris HCl, pH 7.5, 150 mmol/L NaCl, 0.1% Tween 20) containing 4% fat-free milk, and incubated overnight with p53 antibody (1:1000) and SIRT1 antibody (1:1000) at 4° C. The membrane was further incubated with secondary antibodies for 1 h after washing, followed by ECL color development. The same procedure is repeated 3 times. The gray values of protein bands were obtained through Fluorchem 8900 software and the ratio of target band to reference band (GAPDH) was calculated. Results are shown in FIGS. 1 and 2, wherein the expression level of p53 is increased as the increase of SR59230A concentration, while SIRT1 is decreased.

[16] = tested on: SIRT1; experiment: Western blot of SIRT1 in MCF-7 cells treated with SR59230A; format: cell-based; settings: 24 h, with increasing SR59230A concentration, western blot vs GAPDH
Method: as §5

[17] = tested on: MCF7 cells; experiment: MitoTracker/LC3B immunofluorescence double staining (mitochondrion content, mitophagy); format: cell-based; settings: 10^−7 M
Method: as §3

[18] = tested on: MCF7 cells; experiment: MDC staining by flowcytometer; format: cell-based; settings: 10^−7 M
Method: as §3

[19] = tested on: MCF7 cells; experiment: GFP-LC3 eukaryotic expression vector transfection; format: cell-based; settings: 10^−7 M, GFP-LC3 transfected cells
Method: as §3

C[C@H](Cc1ccc(OCC(=O)O)cc1)NC[C@H](O)c1cccc(Cl)c1 [BRL37344]
cardiac hypertrophy [1]: alleviate | ratio of left ventricular weight to body weight (LVW/BW) [1]: decreases | cardiac function ([1]; heart B-ultrasonography, 1 mg/kg/day): improve | cardiac cell apoptosis ([1]; tunel method, 1 mg/kg/day): decreases | p53 expression in rat myocardia [2]: decreases | SIRT1 expression in rat myocardia [3]: increases | level of β-galactosidase in adipose-derived stem cells [4]: decreases | mTOR/Rictor complex [5]: increases | expression of SIRT1 in heart, liver, brain, kidney and aorta [6]: increases | expression of SIRT3 in heart, liver, brain, kidney and aorta [7]: increases | expression of SIRT4 in heart, liver, brain, kidney and aorta [8]: increases | mitochondrial membrane potential [9]: protected | intracellular ROS content [10]: reduced | intracellular ATP level [11]: increased | lipofuscin in cardiomyocyte [12]: significantly reduced | binding of mTOR to α-Tubulin in spindle apparatus [13]: promoted | binding of Rictor to α-Tubulin [14]: promoted

CCc1ccccc1OC[C@@H](O)CN[C@H]1CCCc2ccccc21 [SR59230A]
expression level of p53 [15]: increased | expression level of SIRT1 [16]: decreased | content of mitochondrion ([17]; MitoTracker probes): decreases | mitophagy ([17]; MitoTracker/LC3B double staining): enhance | mitochondrial membrane potential [9]: damaged | MDC staining [18]: increased | GFP-LC3 fluorescent spots [19]: promoted to form many bright and green fluorescent spots
